Like-named read-outs stand apart in the source and are kept apart here.

The nature of one data set: physchem. The format is physicochemical. The note with it: octanol-phosphate buffer, pH 7.4. The procedure: (§1) The compounds prepared in Examples 1-5 were tested for in vitro DNA and RNA synthesis inhibition activity and in vivo for ability to increase survival time in mice injected with P-388 leukemia cells as described above. The relative solubility in octanol and phosphate buffer, expressed as log10 p, was also determined, as well as the ΔTm of isolated helical DNA synthesized in the in vitro test.

Data set [1] has as its system DNA synthesis in L-1210 Cells. Put plainly: inhibition of DNA synthesis in L1210 cells in vitro. The format is cell-based. The note with it: Mus musculus. The procedure: (§2) An in vitro test measured inhibition of DNA and RNA synthesis in L-1210 Cells in the method described by Tong, G., et al, J Med Chem (1976) 19:395. ED50 levels (the dose at which 50% inhibition occurs) were computed and ED50 ratios for DNA/RNA determined.
as §1

Another data set has as its system isolated helical DNA. Put plainly: ΔTm of isolated helical DNA. The format is binding. The procedure:
as §1

The subject of data set [2] is RNA synthesis in L-1210 Cells. Put plainly: inhibition of RNA synthesis in L1210 cells in vitro. The format is cell-based. Particulars: Mus musculus. The procedure: as §2, §1
For a further data set, the system named is P-388 leukemia. Put plainly: survival time of mice injected with P-388 leukemia cells. The format is in vivo. Particulars: mouse P388, qd 1, 10 mg/kg; T/C = treated survival time/untreated survival time×100. The procedure: Survival times and % T/C (treated survival time/untreated survival time×100) were determined, as well as dosage levels required.
The relative solubility in octanol and phosphate buffer, expressed as log10 p, was also determined, as well as the ΔTm of isolated helical DNA synthesized in the in vitro test.

The mark [3] stands for this setting: read-out: log10 p, octanol-phosphate buffer at pH 7.4.
Where [4] appears, read: L1210 cells, DNA synthesis, ED50 = dose at which 50% inhibition occurs, read-out: L1210 cells inhib of synth, ED50, DNA.
The mark [5] stands for this setting: L1210 cells, RNA synthesis, ED50 = dose at which 50% inhibition occurs, read-out: L1210 cells inhib of synth, ED50, RNA.
[6] abbreviates: L1210, read-out: L1210 cells inhib of synth, ED50, DNA.
The mark [7] stands for this setting: L1210, read-out: L1210 cells inhib of synth, ED50, RNA.

`COc1cccc2c1C(=O)c1c(O)c3c(c(O)c1C2=O)C[C@@](O)(C(C)=O)C[C@@H]3O[C@H]1C[C@H](N)[C@H](O)[C@H](C)O1` [Daunorubicin, daunorubicin, reference compound]: in “physchem” (setting [3]), the logD came to 0.66. Besides, the IC50 in data set [1] (setting [4]) was 660 nM; in data set [2] (setting [5]) it was 330 nM. Besides, the “ΔTm of isolated helical DNA” value with isolated helical DNA was 10.5 °C.
Take `COc1cccc2c1C(=O)c1c(O)c3c(c(O)c1C2=O)C[C@@](O)(C(=O)CO)C[C@@H]3O[C@H]1C[C@H](N)[C@H](O)[C@H](C)O1` [Doxorubicin, doxorubicin, reference compound]: in “physchem”, the logD was 0.07. For the same compound, the IC50 in data set [1] (setting [4]) was determined as 1600 nM; in data set [2] (setting [5]), 580 nM. In addition, the “ΔTm of isolated helical DNA” value in the data set with isolated helical DNA was determined as 12.8 °C. Moreover, the “Mouse P388 qd 1, % T/C (mg/kg)” value in the data set with P-388 leukemia was found to be 258 % T/C.
Regarding `COCC(C#N)N[C@H]1C[C@H](O[C@H]2C[C@](O)(C(C)=O)Cc3c(O)c4c(c(O)c32)C(=O)c2c(OC)cccc2C4=O)O[C@@H](C)[C@H]1O` (stereo partly drawn) [N--(1-cyano-2-methoxy-ethyl)daunorubicin, N-(1-cyano-2-methoxyethyl)Dau], the logD in the data set “physchem” (setting [3]) stood at 2.64. In addition, the IC50 in data set [1] (setting [6]) and in data set [2] (setting [7]) was 510 nM in each case.
As for `COCC(C#N)N[C@H]1C[C@H](O[C@H]2C[C@](O)(C(=O)CO)Cc3c(O)c4c(c(O)c32)C(=O)c2c(OC)cccc2C4=O)O[C@@H](C)[C@H]1O` (stereo partly drawn) [N--(1-cyano-2-methoxy-ethyl)doxorubicin, N-(1-cyano-2-methoxyethyl)doxorubicin], the figures for the IC50 in data set [1] (setting [6]) and in data set [2] (setting [7]) were 800 nM and 400 nM, respectively. Besides, the “ΔTm of isolated helical DNA” value with isolated helical DNA came to 12.5 °C.
For `COc1cccc2c1C(=O)c1c(O)c3c(c(O)c1C2=O)C[C@@](O)(C(C)=O)C[C@@H]3O[C@H]1C[C@H](NCC#N)[C@H](O)[C@H](C)O1` [N--(cyanomethyl)-daunorubicin, N-(cyanomethyl)daunorubicin], the IC50 in data set [1] (setting [6]) was found to be 1750 nM; in data set [2] (setting [7]), 820 nM. In addition, the “ΔTm of isolated helical DNA” value in the data set with isolated helical DNA came out at 11.7 °C.
As to `COc1cccc2c1C(=O)c1c(O)c3c(c(O)c1C2=O)C[C@@](O)(C(=O)CO)C[C@@H]3O[C@H]1C[C@H](NCC#N)[C@H](O)[C@H](C)O1` [N--(cyanomethyl)-doxorubicin], the IC50 in data set [1] (setting [6]) worked out at 1200 nM; in data set [2] (setting [7]) it was 290 nM. Also, in the data set with isolated helical DNA, the “ΔTm of isolated helical DNA” value worked out at 13.9 °C.
